Test results as given in patent publication US7709497B2, “Pyrazolo[3,4-b]pyridine compound, and its use as a PDE4 inhibitor” (Glaxo Group Limited, priority 2004, dated 2010).

How the values were obtained:
COPD patients = settings: cilomilast: 15 mg orally twice daily; cited from earlier work
[1] = system: Dinitrofluorobenzene (DNFB)-induced delayed type hypersensitivity (DTH) response in pigs; assay: Pig model of atopic dermatitis: DNFB-induced DTH response, skin topical administration; assay type: in vivo
Text: The pig DTH (delayed type hypersensitivity) model of contact hypersensitivity utilizes the Th2-mediated inflammatory response in pig skin to mimic the pathology of atopic dermatitis in humans. The model measures the potential anti-inflammatory effect of compounds, topically-applied to the skin, on the acute DTH (delayed type hypersensitivity) response in castrated male Yorkshire pigs.
In general in the assay, pigs (domestic Yorkshire pigs, 15-18 kg at time of sensitization, castrated males) are first sensitized by topical application of ca. 10% (w/v) dinitrofluorobenzene (DNFB) dissolved in DMSO:acetone:olive oil (ca. 1:5:3) (ca. 40 mg DNFB, 400 microlitre solution total) to the ears (outer) and groin (inner). The pigs are then challenged 12 days later with ca. 0.6% (w/v) DNFB applied to randomized sites on the shaved back of the pigs (ca. 90 micrograms/site; sites are identified and numbered by grid made with marking pen).
On the day of challenge, the treatments are performed at about 2 hours prior to and about 6 hours after challenge (for DMSO/acetone solutions/suspensions, to maximize exposure to drug), or at about 30 minutes after and about 6 hours after challenge (for topical ointments or creams, representing a more clinically relevant treatment protocol).
One day (about 24 hrs) after challenge, and optionally again at ca. 48 hrs post challenge, test sites are visually evaluated for intensity and extent of erythema by measuring the diameter of the reaction at its widest point and assigning scores of 0 to 4 for each of erythema intensity and erythema extent. Induration (a measure of swelling) is also scored 0 to 4. Scores for erythema intensity, erythema extent and induration are assigned according to the following criteria: Intensity of Erythema: 0=normal, 1=minimal, barely visible, 2=mild, 3=moderate, 4=severe. Extent of Erythema (not raised): 0=no edema, 1=macules of pin head size, 2=lentil sized macules, 3=confluent macules, 4=diffuse over entire site. Induration (palpable): 0=normal, 1=nodules of pin head size, 2=doughy lentil sized nodules, 3=confluent firm nodules, 4=diffuse hard lesion. The summed visual score at ca. 24 hours includes the individual scores for erythema intensity, erythema extent, and induration; so the maximal summed score for each site would be 12. High summed scores can generally indicate a high inflammatory response. Visual scores are subject to some inaccuracy/error.
Differences in the summed score between adjacent control (placebo) and treatment sites on the grids are calculated. This difference value is then used to determine the percent inhibition compared to the summed score for the control (placebo) sites. The more negative the difference value, the greater the calculated inhibition. Percent inhibition of (percent inhibition compared to) the mean summed score can be calculated.
About 24 hours after challenge, treatment sites can optionally also be visually evaluated for lesion area.
The anti-inflammatory effect of the compound of formula (I) (“free base” form), applied topically to the skin, on the acute DTH response in castrated male Yorkshire pigs is compared to that of another PDE4 inhibitor cipamfylline (BRL-61063) and the topical immunomodulator pimecrolimus.
In the above assay, the compound of formula (I) is topically administered: either (A) at ca. 2.5% (w/v) concentration in a solution of ca. 10% DMSO/90% acetone (ca. 50 microliters or ca. 1.5 mg/site) at about 2 hours prior to and about 6 hours after the DNFB challenge; or (B) at ca. 0.5% (w/w) concentration in an ointment containing propylene glycol (PG)*(ca. 25 mg of formulation/site) at about 30 minutes after and about 6 hours after the DNFB challenge. […]

[2] = system: atopic dermatitis patients; settings: 0.15% cream vs cream vehicle and hydrocortisone 17-butyrate (0.1%) cream; cited from earlier work

**Q.** With `COc1ccc([C@]2(C#N)CC[C@@H](C(=O)O)CC2)cc1OC1CCCC1` [cilomilast] as the molecule, how does the “forced expiratory volume in 1s (FEV1) in COPD patients” value (COPD patients) read?
**A.** appears to improve forced expiratory volume in 1s (FEV1)

**Q.** With `Nc1nc2c([nH]1)c(=O)n(CC1CC1)c(=O)n2CC1CC1` [cipamfylline, reference compound] as the molecule, how does the “reduction in summed scores” value ([1]; ca. 0.25% (w/w) in ointment, not statistically significant) read?
**A.** 6-7%

**Q.** And the “reduction in mean summed score” value ([1]; ca. 2.5% (w/v) in DMSO/acetone solution, vs vehicle alone, ca. 24 h after challenge)?
**A.** about 8%

**Q.** And the “efficacy in treatment of atopic dermatitis patients” value [2]?
**A.** significantly more effective than vehicle, but significantly less effective than hydrocortisone 17-butyrate (0.1%) cream

**Q.** For `CC[C@@H]1/C=C(\C)C[C@H](C)C[C@H](OC)[C@H]2O[C@@](O)(C(=O)C(=O)N3CCCC[C@H]3C(=O)O[C@H](/C(C)=C/[C@@H]3CC[C@H](Cl)[C@H](OC)C3)[C@H](C)[C@@H](O)CC1=O)[C@H](C)C[C@@H]2OC` [pimecrolimus, reference compound], which “inhibition of summed scores” value ([1]; 1% (w/w) cream formulation, p<0.05 by ANOVA) is on record?
**A.** about 29%
